Results on 32 compounds are retold here after US9890171B2, “Aldosterone synthase inhibitors” (Boehringer Ingelheim International GmbH, priority 2014, dated 2018).

Sequence of aldosterone synthase (CYP11B2) (A0A2K5UPL9 1-503): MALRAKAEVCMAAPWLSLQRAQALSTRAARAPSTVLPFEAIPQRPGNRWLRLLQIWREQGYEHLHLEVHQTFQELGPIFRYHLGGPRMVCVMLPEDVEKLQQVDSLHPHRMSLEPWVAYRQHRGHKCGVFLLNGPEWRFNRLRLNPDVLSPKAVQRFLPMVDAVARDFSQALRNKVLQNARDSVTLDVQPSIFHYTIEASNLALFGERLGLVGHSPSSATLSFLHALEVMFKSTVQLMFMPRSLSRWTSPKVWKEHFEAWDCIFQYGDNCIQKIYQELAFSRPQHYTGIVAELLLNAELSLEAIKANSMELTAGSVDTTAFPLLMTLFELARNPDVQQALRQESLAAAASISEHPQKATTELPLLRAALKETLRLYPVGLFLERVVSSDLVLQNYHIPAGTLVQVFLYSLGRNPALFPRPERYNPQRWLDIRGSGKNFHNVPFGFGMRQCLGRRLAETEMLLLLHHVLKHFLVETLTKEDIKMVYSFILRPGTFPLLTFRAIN

The experiment has as its target aldosterone synthase (CYP11B2) (Macaca fascicularis, UniProt A0A2K5UPL9). The experiment can be described thus: aldosterone synthase inhibition assay. The experiment is classed as biochemical, cynomolgus monkey. The following applies: cynomolgus adrenal gland mitochondria, 2 μM corticosterone, aldosterone quantified by mass spectrometry. Here is the method: The aldosterone synthase inhibition assay employs cynomolgus adrenal gland mitochondria as the source of aldosterone synthase (CYP11B2). Mitochondria are prepared from frozen cynomolgus monkey adrenal glands according to Method A described in by J. D. McGarry et al. (Biochem. J., 1983, 214, 21-28), with a final resuspension in the AT buffer described in R. Yamaguchi et al. (Cell Death and Differentiation, 2007, 14, 616-624), frozen as aliquots in liquid nitrogen and stored at −80° C. until use.
Assays are performed in 96-well format in a final volume of 60 μL/well, containing 100 mM potassium phosphate, pH 7.4, 1% (v/v) DMSO, and additionally, 2 μM of corticosterone and […] of mitochondrial protein. Reactions are started by the addition of NADPH to 1 mM and allowed to proceed for 60-90 minutes at 37° C. Reactions are terminated by the addition of […]. One hundred microliters are then transferred to a glass filter plate and centrifuged at 570×g for 5 minutes and the filtrate is collected. Reaction product aldosterone is quantified by mass spectrometry. To determine the assay blank value (0% activity), NADPH is omitted from some reactions.
Dose dependent inhibition is quantified by the inclusion of compound at various concentrations. Maximum activity (100%) is defined by reactions containing NADPH, but without compound. Activities at each concentration are expressed as a percentage of the maximum activity (y-axis) and plotted against concentration of compound (x-axis) and the concentration corresponding to 50% activity (IC50) determined using the XLFit curve-fitting program using a 4-parameter logistic model.
`OC1COCc2c(-c3ccc4cn[nH]c4c3)cncc21` (single isomer, unassigned) [Compound 37, 8-(1H-Indazol-6-yl)-3,4-dihydro-1H-pyrano[4,3-c]pyridin-4-ol] registered an IC50 of 94.4 nM. `OC1COCc2c(-c3ccc4c(c3)OCCO4)cncc21` (single isomer, unassigned) [Compound 38, 8-(2,3-Dihydro-benzo[1,4]dioxin-6-yl)-3,4-dihydro-1H-pyrano[4,3-c]pyridin-4-ol]: it took 12 nM to reach half-maximal inhibition (IC50). `Cc1nn(C)c(C)c1-c1cncc2c1COCC2O` (single isomer, unassigned) [Compound 39, 8-(1,3,5-Trimethyl-1H-pyrazol-4-yl)-3,4-dihydro-1H-pyrano[4,3-c]pyridin-4-ol] gave an IC50 of 437 nM. Take `OC1COCc2c(-c3cnc4[nH]ccc4c3)cncc21` (single isomer, unassigned) [Compound 40, 8-(1H-Pyrrolo[2,3-b]pyridin-5-yl)-3,4-dihydro-1H-pyrano[4,3-c]pyridin-4-ol]: the IC50 amounted to 186 nM.

Take `Cc1c(-c2cncc3c2COCC3O)cnn1C` (single isomer, unassigned) [Compound 41, 8-(1,5-Dimethyl-1H-pyrazol-4-yl)-3,4-dihydro-1H-pyrano[4,3-c]pyridin-4-ol]: the IC50 worked out at 1000 nM. Regarding `Cn1nc(C(F)(F)F)cc1-c1cncc2c1COCC2O` (single isomer, unassigned) [Compound 42, 8-(2-Methyl-5-trifluoromethyl-2H-pyrazol-3-yl)-3,4-dihydro-1H-pyrano[4,3-c]pyridin-4-ol], the IC50 was 367 nM. The figure for `OC1COCc2c(-c3ccc4c(c3)OCCCO4)cncc21` (single isomer, unassigned) [Compound 43, 8-(3,4-Dihydro-2H-benzo[b][1,4]dioxepin-7-yl)-3,4-dihydro-1H-pyrano[4,3-c]pyridin-4-ol] is 22 nM; for `Cn1ncc2ccc(-c3cncc4c3COCC4O)cc21` (single isomer, unassigned) [Compound 44, 8-(1-Methyl-1H-indazol-6-yl)-3,4-dihydro-1H-pyrano[4,3-c]pyridin-4-ol] it is 8.5 nM. `OC1COCc2c(-c3ccc4cnccc4c3)cncc21` (single isomer, unassigned) [Compound 45, 8-Isoquinolin-6-yl-3,4-dihydro-1H-pyrano[4,3-c]pyridin-4-ol] returned an IC50 of 5.8 nM.

For `OC1COCc2c(-c3cnn(C4CC4)c3)cncc21` (single isomer, unassigned) [Compound 46, 8-(1-Cyclopropyl-1H-pyrazol-4-yl)-3,4-dihydro-1H-pyrano[4,3-c]pyridin-4-ol], the IC50 is 302 nM. The figure for `OC1COCc2c(-c3ccc4[nH]ncc4c3)cncc21` (single isomer, unassigned) [Compound 47, 8-(1H-Indazol-5-yl)-3,4-dihydro-1H-pyrano[4,3-c]pyridin-4-ol] is 50 nM. `OC1COCc2c(-c3ccc4[nH]ccc4c3)cncc21` (single isomer, unassigned) [Compound 48, 8-(1H-Indol-5-yl)-3,4-dihydro-1H-pyrano[4,3-c]pyridin-4-ol] registered an IC50 of 17.4 nM. `OC1COCc2c(-c3ccc4ocnc4c3)cncc21` (single isomer, unassigned) [Compound 49, 8-Benzooxazol-5-yl-3,4-dihydro-1H-pyrano[4,3-c]pyridin-4-ol] came in with an IC50 of 55.7 nM. In the case of `Cn1cc2ccc(-c3cncc4c3COCC4O)cc2n1` (single isomer, unassigned) [Compound 50, 8-(2-Methyl-2H-indazol-6-yl)-3,4-dihydro-1H-pyrano[4,3-c]pyridin-4-ol], the IC50 turned out to be 1200 nM. Compared with the last compound, the IC50 is about 22-fold higher. `CN1C(=O)Cc2cc(-c3cncc4c3COCC4O)ccc21` (single isomer, unassigned) [Compound 51, 5-(4-Hydroxy-3,4-dihydro-1H-pyrano[4,3-c]pyridin-8-yl)-1-methyl-1,3-dihydro-indol-2-one] displayed an IC50 of 24.2 nM. Compound `O=C1Cc2cc(-c3cncc4c3COCC4O)ccc2N1` (single isomer, unassigned) [Compound 52, 5-(4-Hydroxy-3,4-dihydro-1H-pyrano[4,3-c]pyridin-8-yl)-1,3-dihydro-indol-2-one] showed an IC50 of 64.1 nM. Turning to `OC1COCc2c(-c3ccc4ocnc4c3)cncc21` (single isomer, unassigned) [Compound 53, 8-Benzooxazol-5-yl-3,4-dihydro-1H-pyrano[4,3-c]pyridin-4-ol], it took 808 nM to reach half-maximal inhibition (IC50). `CN1C(=O)Cc2cc(-c3cncc4c3COCC4O)ccc21` (single isomer, unassigned) [Compound 54, 5-(4-Hydroxy-3,4-dihydro-1H-pyrano[4,3-c]pyridin-8-yl)-1-methyl-1,3-dihydro-indol-2-one] had an IC50 of 149 nM. On to `Cn1nc(F)c2ccc(-c3cncc4c3COCC4O)cc21` (single isomer, unassigned) [Compound 55, 8-(3-Fluoro-1-methyl-1H-indazol-6-yl)-3,4-dihydro-1H-pyrano[4,3-c]pyridin-4-ol], for which the IC50 was determined as 7.6 nM.

`CCC(=O)NC1COCc2c(-c3ccc4ocnc4c3)cncc21` (single isomer, unassigned) [Compound 56, N-(8-Benzooxazol-5-yl-3,4-dihydro-1H-pyrano[4,3-c]pyridin-4-yl)-propionamide] had an IC50 of 85.8 nM.

Compound `CCC(=O)NC1COCc2c(-c3ccc4ncn(C)c4c3)cncc21` (single isomer, unassigned) [Compound 57, N-[8-(3-Methyl-3H-benzoimidazol-5-yl)-3,4-dihydro-1H-pyrano[4,3-c]pyridin-4-yl]-propionamide] showed an IC50 of 219 nM.

`CCC(=O)NC1COCc2c(-c3ccc4c(c3)CC(=O)N4C)cncc21` (single isomer, unassigned) [Compound 58, N-[8-(1-Methyl-2-oxo-2,3-dihydro-1H-indol-5-yl)-3,4-dihydro-1H-pyrano[4,3-c]pyridin-4-yl]-propionamide] had an IC50 of 130 nM. In turn, `CCC(=O)NC1COCc2c(-c3ccc4c(c3)CC(=O)N4)cncc21` (single isomer, unassigned) [Compound 59, N-[8-(2-Oxo-2,3-dihydro-1H-indol-5-yl)-3,4-dihydro-1H-pyrano[4,3-c]pyridin-4-yl]-propionamide] showed an IC50 of 179 nM. In the case of `CCC(=O)NC1COCc2c(-c3ccc4nnn(C)c4c3)cncc21` (single isomer, unassigned) [Compound 60, N-[8-(3-Methyl-3H-benzotriazol-5-yl)-3,4-dihydro-1H-pyrano[4,3-c]pyridin-4-yl]-propionamide], half-maximal inhibition (IC50) was put at 75.5 nM. `CCC(=O)NC1COCc2c(-c3ccc4[nH]nc(C)c4c3)cncc21` (single isomer, unassigned) [Compound 61, N-[8-(3-Methyl-1H-indazol-5-yl)-3,4-dihydro-1H-pyrano[4,3-c]pyridin-4-yl]-propionamide] came in with an IC50 of 36.2 nM. Against the preceding compound, the IC50 is about 2.1-fold lower. Regarding `CCC(=O)NC1COCc2c(-c3ccc4c(C)n[nH]c4c3)cncc21` (single isomer, unassigned) [Compound 62, N-[8-(3-Methyl-1H-indazol-6-yl)-3,4-dihydro-1H-pyrano[4,3-c]pyridin-4-yl]-propionamide], half-maximal inhibition (IC50) required 139 nM. With `CCS(=O)(=O)NC1COCc2c(-c3ccc4c(c3)CC(=O)N4C)cncc21` (single isomer, unassigned) [Compound 63, Ethanesulfonic acid [8-(1-methyl-2-oxo-2,3-dihydro-1H-indol-5-yl)-3,4-dihydro-1H-pyrano[4,3-c]pyridin-4-yl]-amide], the IC50 was 85.2 nM. The figure for `CCS(=O)(=O)NC1COCc2c(-c3ccc4c(c3)CC(=O)N4)cncc21` (single isomer, unassigned) [Compound 64, Ethanesulfonic acid [8-(2-oxo-2,3-dihydro-1H-indol-5-yl)-3,4-dihydro-1H-pyrano[4,3-c]pyridin-4-yl]-amide] is 611 nM; for `CCS(=O)(=O)NC1COCc2c(-c3ccc4nnn(C)c4c3)cncc21` (single isomer, unassigned) [Compound 65, Ethanesulfonic acid [8-(3-methyl-3H-benzotriazol-5-yl)-3,4-dihydro-1H-pyrano[4,3-c]pyridin-4-yl]-amide] it is 36.1 nM. `CCS(=O)(=O)NC1COCc2c(-c3ccc4c(C)n[nH]c4c3)cncc21` (single isomer, unassigned) [Compound 66, Ethanesulfonic acid [8-(3-methyl-1H-indazol-6-yl)-3,4-dihydro-1H-pyrano[4,3-c]pyridin-4-yl]-amide]: the IC50 worked out at 1000 nM.

In turn, `CCS(=O)(=O)NC1COCc2c(-c3ccc4ncn(C)c4c3)cncc21` (single isomer, unassigned) [Compound 67, Ethanesulfonic acid [8-(3-methyl-3H-benzoimidazol-5-yl)-3,4-dihydro-1H-pyrano[4,3-c]pyridin-4-yl]-amide] came in with an IC50 of 110 nM.

Take `CCS(=O)(=O)NC1COCc2c(-c3ccc4c(F)nn(C)c4c3)cncc21` (single isomer, unassigned) [Compound 68, Ethanesulfonic acid [8-(3-fluoro-1-methyl-1H-indazol-6-yl)-3,4-dihydro-1H-pyrano[4,3-c]pyridin-4-yl]-amide]: the IC50 stood at 15.9 nM.
